Assay: Intraduodenal (id) bioavailability screen in minipigs, oil formulations, vs iv parent dichloro complex
Format: in vivo, Gottingen minipig
Settings: for Mini-Pig BioA: id 10 mg/kg, 10% by weight formulation, AUC0->24 h vs iv 1 mg/kg parent chloro complex
Method: Compounds were screened for oral bioavailability by injecting the formulated prodrugs directly into the duodenum (intraduodenal or id administration) of the minipig test subjects, thus bypassing the acidic environment of the stomach and thereby eliminating potentially misleading oral bioavailability results that could arise from alteration of the test article drug in the acid environment of the stomach.
The studies were conducted at Xenometrics LLC (Stillwell, Kans.) and the Id bioavailability was determined using various axial ligand derivative complexes of GC4419, GC4444, GC4403 and GC4401.
*Where the iv dose is 1 mg of test article drug per kilogram body weight of the mini-pig, and the dose administered id is 10 mg of test article drug per kg body weight of the mini-pig.
Male Gottingen minipigs (4-5 mo old, 9-12 kg weight) were purchased from Marshall BioResources and housed at Xenometrics. […] The distal end was exteriorized with a reusable accessible hub (see surgical details below). During a recovery period of at least 2 weeks the minipigs were handled daily to acclimate them to the test procedures, i.e., id dosing and blood collections. For each experiment, each minipig received a test article drug dissolved or suspended in an excipient vehicle. […] All dosing experiments were conducted in fasted animals. Food was withdrawn from the minipigs 16 hours before dosing. The minipigs had ad libitum access to water. Dosed minipigs were allowed access to food 6 hour after dosing. The test article was administered at a dose of 10 mg/kg parent drug in 0.1 m L/kg vehicle (e.g., 1.5 mL in 15 kg minipig) as a bolus injection (˜1 minute) via the id cannula. The actual amount of total test article drug administered varied with the formula weight of the prodrug. An equal volume of excipient vehicle was used to flush the cannula after the test article was administered. Approximately 6 hours later, corn oil was used to flush the cannula. After approximately 24 hours post-dose, the catheter was flushed with sterile saline solution and capped. At the following time-points 0.25, 0.5, 1, 2, 4, 8, 24 and 48 hour post-injection, 2 mL blood samples were collected by cranial vena cava puncture (4 mL Sodium heparin Vacutainer, 20 g 1.5″ needle) after the skin surface was wiped with ethanol. The minipig was placed in a sling in a recumbent position without anesthesia for the collection of blood samples. The minipigs were never used more than once per 7 days for experimentation. The blood samples were kept on ice until processed for plasma. Blood samples were centrifuged at 1200×g for ten minutes at 4° C. and plasma samples were transferred to 96 well plate tubes, capped and stored at −20° C. until shipment on dry ice to the analytical laboratory used for measuring the concentration of drug in the plasma. The concentration of the parent manganese pentaaza macrocylic ring complex (independent of the composition of the axial ligands) was measured in plasma using a validated HPLC/MS/MS method that is linear between 50 ng/mL and 20,000 ng/mL.
The oils used for preparing the dosing solutions were used as supplied from commercial sources. The Capmul MCM (NF) is a mixture of mono/diglycerides of caprylic/capric acids and was supplied by ABITEC Corporation, Janesville, Wis. The Miglyol 812 N is a mixture of caprylic/capric acid triglycerides and was supplied by Cremer Oleo Division, Eatontown, N.J. Labrafil M 2125 CS (NF) is chemically defined to be linoleoyl polyoxyl-6 glycerides NF and was supplied by Gattefosse, SAINT-PRIEST Cedex, France. Peceol is chemically defined to be the monoglyceride, glyceryl monooleate NF, and was supplied by Gattefosse, SAINT-PRIEST Cedex, France. Maisine 35-1 is chemically defined to be the monoglyceride glyceryl monolinoleate (NF) and was supplied by Gattefosse, SAINT-PRIEST Cedex, France. Labrasol (NF) is chemically defined to be caprylocaproyl polyoxyl-8 glycerides NF and was supplied by Gattefosse, SAINT-PRIEST Cedex, France. […]

| Molecule | Mini-Pig BioA (base oil Capmul MCM) [%] | Mini-Pig BioA (base oil Maisine 35-1) [%] | Mini-Pig BioA (base oil Peceol) [%] | Mini-Pig BioA (base oil Labrafil M2125 CS) [%] | also measured |
| --- | --- | --- | --- | --- | --- |
| C[C@@H]1CN[C@@H]2CCCC[C@H]2NCc2cccc(n2)CN[C@@H]2CCCC[C@H]2N1.[Cl][Mn][Cl] [GC4444, reference compound] | 14 | – | – | – | – |
| Manganese(II)bis-Benzoato[(4aS,13aS,17aS,21aS)-1,2,3,4,4a,5,6,12,13,13a,14,15,16,17,17a,18,19,20,21,21a-Eicosahydro-11,7-nitrilo-7H-dibenzo[b,h][1,4,7,10] tetraazacycloheptadecine-KN5, KN13, KN18, KN21, KN22]- [GC4712] | 24 | 18 | 29 | – | – |
| Manganese(II)bis-L--valinato[(4aS,13aS,17aS,21aS)-1,2,3,4,4a,5,6,12,13,13a,14,15,16,17,17a,18,19,20,21,21a- Eicosahydro-11,7-nitrilo-7H-dibenzo[b,h][1,4,7,10] tetraazacyclo-heptadecine-KN5, KN13, KN18, KN21, KN22]- [GC4746] | 13 | – | – | – | – |
| Manganese(II)bis-L-Lactato[(4aS,13aS,17aS,21aS)-1,2,3,4,4a,5,6,12,13,13a,14,15,16,17,17a,18,19,20,21,21a-Eicosahydro-11,7-nitrilo-7H-dibenzo[b,h][1,4,7,10] tetraazacycloheptadecine-KN5, KN13, KN18, KN21, KN22]- [GC4714] | 36 | – | – | – | – |
| Manganese(II)bis-L-phenylalaninato[(4aS,13aS,17aS,21aS)-1,2,3,4,4a,5,6,12,13,13a,14,15,16,17,17a,18,19,20,21,21a-Eicosahydro-11,7-nitrilo-7H-dibenzo[b,h][1,4,7,10] tetraazacyclo-heptadecine-KN5, KN13, KN18, KN21, KN22]- [GC4704] | 10 | – | – | – | – |
| Manganese(II)bis-L-phenylglycinato[(4aS,13aS,17aS,21aS)-1,2,3,4,4a,5,6,12,13,13a, 14,15,16,17,17a,18,19,20,21,21a-Eicosahydro-11,7-nitrilo-7H-dibenzo[b,h][1,4,7,10] tetraazacyclo-heptadecine-KN5, KN13, KN18, KN21, KN22]- [GC4702] | 43 | – | 29 | 25 | Mini-Pig BioA (base oil Miglyol 812N): 42%; bioavailability / absorption, in words (minipig id dosing, comparison between axial ligands): much better absorbed |
| Manganese(II)bis-acetato[(4aS,13aS,17aS,21aS)-1,2,3,4,4a,5,6,12,13,13a,14,15,16,17, 17a,18,19,20,21,21a-Eicosahydro-11,7-nitrilo-7H-dibenzo[b,h][1,4,7,10] tetraazacycloheptadecine-KN5,KN13,KN18,KN21,KN22]- [GC4701] | 15 | 8 | 11 | 16 | – |
| Manganese(II)bis-cyclohexanebutyrato[(4aS,13aS,17aS,21aS)-1,2,3,4,4a,5,6,12,13,13a, 14,15,16,17,17a,18,19,20,21,21a-Eicosahydro-11,7-nitrilo-7H-dibenzo[b,h][1,4,7,10] tetraazacyclo-heptadecine-KN5, KN13, KN18, KN21, KN22]- [GC4707] | 9 | – | – | – | – |
| Manganese(II)bis-dodecanoato[(4aS,13aS,17aS,21aS)-1,2,3,4,4a,5,6,12,13, 13a,14,15,16,17,17a,18,19,20,21,21a-Eicosahydro-11,7-nitrilo-7H-dibenzo[b,h][1,4,7,10] tetraazacycloheptadecine-KN5, KN13, KN18, KN21, KN22]- [GC4708] | 12 | – | – | – | – |
| Manganese(II)bis-n-Butyrato[(4aS,13aS,17aS,21aS)-1,2,3,4,4a,5,6,12,13,13a,14,15,16,17,17a,18,19,20,21,21a-Eicosahydro-11,7-nitrilo-7H-dibenzo[b,h][1,4,7,10] tetraazacycloheptadecine-KN5, KN13, KN18, KN21, KN22]- [GC4713] | – | – | 18 | 21 | – |
| Manganese(II)bis-octanoato[(4aS,13aS,17aS,21aS)-1,2,3,4,4a,5,6,12,13,13a,14,15,16, 17,17a,18,19,20,21,21a-Eicosahydro-11,7-nitrilo-7H-dibenzo[b,h][1,4,7,10] tetraazacycloheptadecine-KN5, KN13, KN18, KN21, KN22]- [GC4710] | 13 | 8 | – | 21 | – |
| Manganese(II)bis-phenylacetato[(4aS,13aS,17aS,21aS)-1,2,3,4,4a,5,6,12,13,13a,14, 15,16,17,17a,18,19,20,21,21a-Eicosahydro-11,7-nitrilo-7H-dibenzo[b,h][1,4,7,10] tetraazacyclo-heptadecine-KN5, KN13, KN18, KN21, KN22]- [GC4718] | 32 | 28 | – | – | – |
| Manganese(II)bis-phenylglyoxaloto[(4aS,13aS,17aS,21aS)-1,2,3,4,4a,5,6,12,13,13a,14, 15,16,17,17a,18,19,20,21,21a-Eicosahydro-11,7-nitrilo-7H-dibenzo[b,h][1,4,7,10] tetraazacyclohepta-decine-KN5, KN13, KN18, KN21, KN22]- [GC4719] | 25 | 31 | 28 | – | – |
| Manganese(II)bis-pivaloato[(4aS,13aS,17aS,21aS)-1,2,3,4,4a,5,6,12,13,13a,14,15,16,17, 17a,18,19,20,21,21a-Eicosahydro-11,7-nitrilo-7H-dibenzo[b,h][1,4,7,10] tetraazacycloheptadecine-KN5, KN13, KN18, KN21, KN22]- [GC4709] | 17 | – | – | 22 | – |
| Manganese(II)bis-propionato[6R-Methyl(4aR,13aR,17aR,21aR)-1,2,3,4,4a,5,6,12,13,13a,14,15,16,17,17a,18,19,20,21,21a-Eicosahydro-11,7-nitrilo-7H-dibenzo[b,h][1,4,7,10] tetraazacycloheptadecine-KN5, KN13, KN18, KN21, KN22]- [GC4747] | – | – | – | 20 | – |
| Manganese(II)bis-propionato[(4aR,13aR,17aR,21aR)-1,2,3,4,4a,5,6,12,13,13a,14,15,16,17,17a,18,19,20,21,21a-Eicosahydro-11,7-nitrilo-7H-dibenzo[b,h][1,4,7,10] tetraazacycloheptadecine-KN5, KN13, KN18, KN21, KN22]- [GC4748] | – | – | – | 22 | – |
| Manganese(II)bis-propionato[(4aS,13aS,17aS,21aS)-1,2,3,4,4a,5,6,12,13,13a,14,15,16, 17,17a,18,19,20,21,21a-Eicosahydro-11,7-nitrilo-7H-dibenzo[b,h][1,4,7,10] tetraaza-cycloheptadecine-KN5, KN13, KN18, KN21, KN22]- [GC4711] | 27 | 29 | 29 | 44 | Mini-Pig BioA (base oil Labrafil M1944 CS): 23% |
| Manganese(II)bis-rac-Mandelato[(4aS,13aS,17aS,21aS)-1,2,3,4,4a,5,6,12,13,13a,14,15,16,17,17a,18,19,20,21,21a-Eicosahydro-11,7-nitrilo-7H-dibenzo[b,h][1,4,7,10] tetraazacycloheptadecine-KN5, KN13, KN18, KN21, KN22]- [GC4706] | 28 | – | – | – | – |

From patent publication US9738670B2, “Pentaaza macrocyclic ring complexes possessing oral bioavailability” (Galera Labs, LLC, priority 2015, dated 2017)
